From patent publication US12441703B2, “Carboxamides as modulators of sodium channels” (VERTEX PHARMACEUTICALS INCORPORATED, priority 2019, dated 2025)
pIC50: −log10 of the molar value.

These compounds were tested against human NaV 1.8 (Homo sapiens, UniProt Q9Y5Y9) (assay: E-VIPR assay for detecting and measuring NaV inhibition properties). Conditions: E-VIPR assay conducted in the absence of human serum (compounds marked *); HEK cells expressing truncated human NaV 1.8; read-out: IC50.
Type: cell-based
Summary of the method: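 HEK cells with truncated human NaV1.8 plus KIR2.1 BacMam, hexyl dye loaded 20 min, compound 30 min at room temperature, 11-point 3-fold series […], 0.625% DMSO, with or without human serum. E-VIPR biphasic stimulation at 10 Hz for 10 s; membrane-potential response read as normalized coumarin/oxonol ratio.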

Chain of human NaV 1.8 (Q9Y5Y9 whole entry, looked up, the tested form may be a part): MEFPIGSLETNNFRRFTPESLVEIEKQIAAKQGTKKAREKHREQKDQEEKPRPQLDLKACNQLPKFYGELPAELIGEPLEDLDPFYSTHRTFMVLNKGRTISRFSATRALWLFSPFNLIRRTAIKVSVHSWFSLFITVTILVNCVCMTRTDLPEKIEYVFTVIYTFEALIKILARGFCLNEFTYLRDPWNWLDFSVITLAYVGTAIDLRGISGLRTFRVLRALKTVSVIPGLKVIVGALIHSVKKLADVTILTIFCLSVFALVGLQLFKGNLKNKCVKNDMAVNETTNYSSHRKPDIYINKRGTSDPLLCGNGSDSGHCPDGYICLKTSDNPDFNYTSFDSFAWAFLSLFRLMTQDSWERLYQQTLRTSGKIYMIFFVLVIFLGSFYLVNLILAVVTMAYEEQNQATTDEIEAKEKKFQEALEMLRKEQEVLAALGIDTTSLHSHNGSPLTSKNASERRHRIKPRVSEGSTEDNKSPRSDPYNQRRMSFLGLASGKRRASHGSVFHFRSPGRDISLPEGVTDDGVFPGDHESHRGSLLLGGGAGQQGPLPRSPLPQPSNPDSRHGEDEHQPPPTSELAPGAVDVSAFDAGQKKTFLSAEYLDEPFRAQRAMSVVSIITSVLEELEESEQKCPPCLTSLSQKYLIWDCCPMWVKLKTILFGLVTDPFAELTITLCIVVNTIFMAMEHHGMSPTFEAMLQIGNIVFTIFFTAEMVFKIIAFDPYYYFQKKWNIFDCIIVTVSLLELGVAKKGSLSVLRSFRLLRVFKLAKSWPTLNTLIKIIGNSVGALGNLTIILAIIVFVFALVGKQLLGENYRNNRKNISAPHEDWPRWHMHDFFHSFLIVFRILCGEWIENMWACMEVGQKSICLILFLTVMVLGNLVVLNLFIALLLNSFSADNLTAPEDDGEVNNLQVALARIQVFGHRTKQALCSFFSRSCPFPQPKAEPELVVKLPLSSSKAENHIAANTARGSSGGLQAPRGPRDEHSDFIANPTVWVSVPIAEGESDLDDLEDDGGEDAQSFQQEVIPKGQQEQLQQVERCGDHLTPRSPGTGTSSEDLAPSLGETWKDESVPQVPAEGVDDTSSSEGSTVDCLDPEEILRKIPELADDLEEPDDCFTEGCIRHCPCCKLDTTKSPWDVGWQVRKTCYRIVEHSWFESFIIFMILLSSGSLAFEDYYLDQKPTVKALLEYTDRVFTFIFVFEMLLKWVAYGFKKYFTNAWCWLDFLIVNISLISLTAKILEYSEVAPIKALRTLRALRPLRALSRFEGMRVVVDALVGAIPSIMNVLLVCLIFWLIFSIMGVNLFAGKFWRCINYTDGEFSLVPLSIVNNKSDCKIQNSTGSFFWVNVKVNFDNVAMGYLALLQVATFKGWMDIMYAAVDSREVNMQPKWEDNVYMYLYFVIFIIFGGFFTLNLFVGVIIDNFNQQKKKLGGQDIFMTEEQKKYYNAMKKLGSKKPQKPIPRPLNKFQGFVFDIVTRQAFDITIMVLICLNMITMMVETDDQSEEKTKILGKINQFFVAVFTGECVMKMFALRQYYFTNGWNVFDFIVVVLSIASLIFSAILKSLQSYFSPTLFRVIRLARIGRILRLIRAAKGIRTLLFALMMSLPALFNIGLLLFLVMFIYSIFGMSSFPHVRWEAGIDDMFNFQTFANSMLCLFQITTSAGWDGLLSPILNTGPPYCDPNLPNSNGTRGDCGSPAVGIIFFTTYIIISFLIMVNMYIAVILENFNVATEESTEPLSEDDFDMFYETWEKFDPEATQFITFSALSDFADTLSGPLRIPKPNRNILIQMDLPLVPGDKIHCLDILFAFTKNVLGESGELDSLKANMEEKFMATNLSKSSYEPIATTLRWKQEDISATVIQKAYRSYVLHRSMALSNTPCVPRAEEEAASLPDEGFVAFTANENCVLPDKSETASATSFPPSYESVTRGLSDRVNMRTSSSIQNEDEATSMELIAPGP

pIC50	Structure (SMILES)
7.85	COc1cc(OC(F)(F)F)ccc1Oc1cc(F)cc(F)c1C(=O)Nc1ccnc(C(N)=O)c1 [Compound 360, 4-[[2,4-difluoro-6-[2-methoxy-4-(trifluoromethoxy)phenoxy]benzoyl]amino]pyridine-2-carboxamide]
7.12	COc1c(Oc2cnc(C(F)(F)F)c(C)c2C(=O)Nc2ccc(C(N)=O)nc2)ccc(F)c1F [Compound 358, N-(6-carbamoyl-3-pyridyl)-5-(3,4-difluoro-2-methoxy-phenoxy)-3-methyl-2-(trifluoromethyl)pyridine-4-carboxamide]

Same assay, conditions: E-VIPR assay conducted in the presence of human serum; HEK cells expressing truncated human NaV 1.8; read-out: IC50

pIC50	Structure (SMILES)
6.77	COc1cc(F)ccc1Oc1ccc(C(F)(F)F)c(OC)c1C(=O)Nc1ccnc(C(N)=O)c1 [Compound 52, 4-[[6-(4-fluoro-2-methoxy-phenoxy)-2-methoxy-3-(trifluoromethyl)benzoyl]amino]pyridine-2-carboxamide]
7.52	[2H]C([2H])([2H])Oc1cc(OC(F)(F)F)ccc1Oc1cc(C2=COCCC2)cc(F)c1C(=O)Nc1ccnc(C(N)=O)c1 [Compound 1002, 4-[[4-(3,4-dihydro-2H-pyran-5-yl)-2-fluoro-6-[2-(trideuteriomethoxy)-4-(trifluoromethoxy)phenoxy]benzoyl]amino]pyridine-2-carboxamide]
7.62	CC(C)Oc1ccc(Oc2ccc(C(F)(F)F)c(F)c2C(=O)Nc2ccnc(C(N)=O)c2)cc1F [Compound 28, 4-[[2-fluoro-6-(3-fluoro-4-isopropoxy-phenoxy)-3-(trifluoromethyl)benzoyl]amino]pyridine-2-carboxamide]
6.30	COc1cc(OC(F)(F)F)ccc1Oc1cc(-c2ccc(Cl)cc2)ccc1C(=O)Nc1ccnc(C(N)=O)c1 [Compound 155, 4-[[4-(4-chlorophenyl)-2-[2-methoxy-4-(trifluoromethoxy)phenoxy]benzoyl]amino]pyridine-2-carboxamide]
8.05	Cc1c(C(F)(F)F)ccc(Oc2ccc(OC(F)(F)F)cc2C2CC2)c1C(=O)Nc1ccnc(C(N)=O)c1 [Compound 148, 4-[[6-[2-cyclopropyl-4-(trifluoromethoxy)phenoxy]-2-methyl-3-(trifluoromethyl)benzoyl]amino]pyridine-2-carboxamide]
8.22	COc1c(Oc2ccc(C(F)(F)F)c(Cl)c2C(=O)Nc2ccnc(C(N)=O)c2)ccc(F)c1F [Compound 193]
6.85	Cc1cc(Cl)ccc1Oc1ccc(C(F)(F)F)c(C)c1C(=O)Nc1ccnc(C(N)=O)c1 [Compound 136, 4-[[6-(4-chloro-2-methyl-phenoxy)-2-methyl-3-(trifluoromethyl)benzoyl]amino]pyridine-2-carboxamide]
6.28	Cc1cc(F)ccc1Oc1ccc(C(F)(F)F)c(F)c1C(=O)Nc1ccc(C(N)=O)nc1 [Compound 101, 5-[[2-fluoro-6-(4-fluoro-2-methyl-phenoxy)-3-(trifluoromethyl)benzoyl]amino]pyridine-2-carboxamide]
< 5.52	NC(=O)c1cc(NC(=O)c2cc(Cl)ccc2Oc2ccc(OC(F)(F)F)cn2)ccc1F [Compound 256, 5-[[5-chloro-2-[[5-(trifluoromethoxy)-2-pyridyl]oxy]benzoyl]amino]-2-fluoro-benzamide]
6.85	Cc1c(C(F)(F)F)ccc(Oc2ccc(F)c3c2OCC3)c1C(=O)Nc1ccnc(C(N)=O)c1 [Compound 125, 4-[[6-[(4-fluoro-2,3-dihydrobenzofuran-7-yl)oxy]-2-methyl-3-(trifluoromethyl)benzoyl]amino]pyridine-2-carboxamide]
6.54	COc1cc(OC(F)(F)F)ccc1Oc1ccc(C2CC2)c(C)c1C(=O)Nc1ccc(C(N)=O)nc1 [Compound 182]
7.77	COc1cc(OC(F)(F)F)ccc1Oc1cc2c(c(F)c1C(=O)Nc1ccnc(C(N)=O)c1)OCCO2 [Compound 1035]

Structure (SMILES)	pIC50
COc1cc(OC(F)(F)F)ccc1Oc1ccc(C(F)(F)F)c(OCC(C)C)c1C(=O)Nc1ccnc(C(N)=O)c1 [Compound 82, 4-[[2-isobutoxy-6-[2-methoxy-4-(trifluoromethoxy)phenoxy]-3-(trifluoromethyl)benzoyl]amino]pyridine-2-carboxamide]	< 5.52
